Reference: patent US20140303092A1 (CHIMERIX, INC., priority 2011, published 2014)

Assay: Study HDP-CDV-201: safety and tolerability (adverse events, laboratory abnormalities, discontinuations)
Format: in vivo, human (adult allogeneic HSCT recipients)
Conditions: Cohort 4A
Description: Clinical Studies of HDP-CDV were performed and described in detail in the following Examples. For example, HDP-CDV-201 is a placebo-controlled, dose-escalating trial in HSCT CMV (R+) recipients, evaluating the ability of HDP-CDV to prevent or control CMV infection was carried out. Five cohorts were established in which participants or subjects received either placebo or the HDP-CDV orally, in doses ranging from 40 mg weekly (QW) to 200 mg twice weekly (BIW). Subjects who were post-HSCT were enrolled at the time of engraftment and randomized to HDP-CDV or placebo (3 to 1 ratio) and received blinded therapy until approximately 100 day post-transplantation. HDP-CDV doses were 40 mg QW, 100 mg QW, 200 mg QW, 200 mg BIW and 100 mg BIW. Escalation to the next dose was decided by the data monitoring committee after review of the safety data from the previous Cohort. Subjects who developed CMV disease or CMV infection requiring pre-emptive therapy with local standard of care were discontinued from blinded therapy and followed for 4 weeks. Subjects who completed treatment with blinded therapy were followed for 8 weeks post-therapy.
Data from Study HDP-CDV-201 also provided characterization of the safety and tolerability profile of HDP-CDV when administered for the prevention or control of CMV infection in high risk (R^+) post-HSCT adult subjects.
The Safety population (SAFETY) included all randomized subjects who took at least one dose of study treatment. This population was used to summarize safety outcomes based on the treatment actually received, in cases where a subject was treated contrary to the randomization schedule.
The safety and tolerability profile of HDP-CDV, including subject demographics and Baseline characteristics; the AE profile; and laboratory abnormalities of interest were analyzed in the cohorts followed in this investigation.
Subjects completing the treatment period received a full course of study medication; those completing the entire study attended visits through 8 weeks of follow up. Subjects who discontinued treatment may have done so for protocol specified reasons (e.g. development of clinically significant CMV infection requiring preemptive treatment with excluded anti-CMV medications) or for other reasons (e.g., withdrawal, adverse events, loss to follow-up). The disposition of subjects in Study HDP-CDV-201 during the double-blind, placebo-controlled treatment period (through Week 11) is listed by dosing Cohort in TABLE 23.
Adverse events were examined by severity to ensure that all safety signals were identified in this study population. Because of the frequency of events in HSCT recipients, particular attention was given to evaluation of Grade 3 […], 4 (severe), and 5 (fatal) adverse events.
Only those preferred terms for which at least one Grade 3 or higher event was experienced in any treatment group are listed. Cytomegalovirus-related AEs are excluded from this analysis.
HDP-CDV is a lipid conjugate of CDV. Because CDV is known to have adverse effects on renal function and bone marrow, decreased GFR and persistent neutropenia were identified as AEs of special interest. Key renal and hematological (TABLE 30) laboratory parameters were measured and listed below by Study HDP-CDV-201 treatment groups. TABLE 30 includes abnormal levels of serum creatinine, neutrophils, platelets, WBCs, and hemoglobin and includes data at Screening and during the treatment period.
A common metric for unit based dosing of medications is by weight (mg/kg). When the distribution of weights was examined for all subjects participating in the study, the median was 78 kg and the lower 25th percentile weight was approximately 65 kg, which translates to a cut-off of ˜3 mg/kg for a 200 mg total weekly dose. Based upon this approach, a cut-off of 3 mg/kg was used to assess the frequency of diarrhea and associated GI AEs reported for the subjects in Cohorts 3 or 4a (TABLE 40).

## CCCCCCCCCCCCCCCCOCCCOP(=O)(O)COC(CO)Cn1ccc(N)nc1=O (stereo not drawn) [HDP-CDV]
100 mg BIW
  Intensity of Gastrointestinal AEs, Grade 1, subjects: 12 (24.0%)
  Intensity of Gastrointestinal AEs, Grade 2, subjects: 17 (34.0%)
  Intensity of Gastrointestinal AEs, Grade 3, subjects: 10 (20.0%)
  Intensity of Gastrointestinal AEs, Grade 4, subjects: 1 (2.0%)
  Intensity of Gastrointestinal AEs, Grade 5, subjects: 0
  Serum ALT level, Median fold increase from Baseline at Follow-up Week 1: 1.52 fold
  Serum ALT level, Median fold increase from Baseline at Follow-up Week 4: 1.11 fold
  Serum ALT level, Peak Median fold increase from Baseline: 2.86 fold
  Subjects completed study: 25 (50.0%) n (%)
  TEAE Abdominal pain Grade 2, subjects: 1 (2.0%)
  TEAE Abdominal pain Grade 3, subjects: 1 (2.0%)
  TEAE Abdominal pain Grade 4, subjects: 0
  TEAE Abdominal pain Grade 5, subjects: 0
  TEAE Abdominal pain Overall Frequency, subjects: 13 (26.0%)
  TEAE Diarrhea Grade 2, subjects: 6 (12.0%)
  TEAE Diarrhea Grade 3, subjects: 9 (18.0%)
  TEAE Diarrhea Grade 4, subjects: 0
  TEAE Diarrhea Grade 5, subjects: 0
  TEAE Diarrhea Overall Frequency, subjects: 26 (52.0%)
  TEAE Hypokalaemia Grade 2, subjects: 2 (4.0%)
  TEAE Hypokalaemia Grade 3, subjects: 2 (4.0%)
  TEAE Hypokalaemia Grade 4, subjects: 0
  TEAE Hypokalaemia Grade 5, subjects: 0
  TEAE Hypokalaemia, subjects: 8 (16.0%)
  TEAE Nausea Grade 2, subjects: 9 (18.0%)
  TEAE Nausea Grade 3, subjects: 2 (4.0%)
  TEAE Nausea Grade 4, subjects: 0
  TEAE Nausea Grade 5, subjects: 0
  TEAE Nausea Overall Frequency, subjects: 17 (34.0%)
  TEAE Vomiting Grade 2, subjects: 8 (16.0%)
  TEAE Vomiting Grade 3, subjects: 2 (4.0%)
  TEAE Vomiting Grade 4, subjects: 0
  TEAE Vomiting Grade 5, subjects: 0
  TEAE Vomiting Overall Frequency, subjects: 22 (44.0%)
  Total Bilirubin (Screening) >1-[…] ULN, subjects: 3 (6.5%)
  Total Bilirubin (Screening) >1.5-3 × ULN, subjects: 2 (4.3%)
  Total Bilirubin (Screening) >3-10 × ULN, subjects: 0
  Total Bilirubin (Screening) >10 × ULN, subjects: 0
  Total Bilirubin (any time during therapy) >1-[…] ULN, subjects: 5 (10.0%)
  Total Bilirubin (any time during therapy) >1.5-3 × ULN, subjects: 3 (6.0%)
  Total Bilirubin (any time during therapy) >3-10 × ULN, subjects: 1 (2.0%)
  Total Bilirubin (any time during therapy) >10 × ULN, subjects: 0
  excess of subjects with severe diarrhea as compared to placebo: 13%
  incidence of diarrhea: 52%
100 mg BIW >3 mg/k
  TEAE Abdominal pain Grade 2, subjects: 0
  TEAE Abdominal pain Grade 3, subjects: 0
  TEAE Abdominal pain Grade 4, subjects: 0
  TEAE Abdominal pain Grade 5, subjects: 0
  TEAE Abdominal pain Overall Frequency, subjects: 4 (40%)
  TEAE Diarrhea Grade 2, subjects: 3 (30%)
  TEAE Diarrhea Grade 3, subjects: 3 (30%)
  TEAE Diarrhea Grade 4, subjects: 0
  TEAE Diarrhea Grade 5, subjects: 0
  TEAE Diarrhea Overall Frequency, subjects: 6 (60%)
  TEAE Hypokalaemia Grade 2, subjects: 1 (10%)
  TEAE Hypokalaemia Grade 3, subjects: 2 (20.0%)
  TEAE Hypokalaemia Grade 4, subjects: 0
  TEAE Hypokalaemia Grade 5, subjects: 0
  TEAE Hypokalaemia, subjects: 3 (30%)
  TEAE Nausea Grade 2, subjects: 3 (30%)
  TEAE Nausea Grade 3, subjects: 1 (10%)
  TEAE Nausea Grade 4, subjects: 0
  TEAE Nausea Grade 5, subjects: 0
  TEAE Nausea Overall Frequency, subjects: 4 (40%)
  TEAE Vomiting Grade 2, subjects: 4 (40.0%)
  TEAE Vomiting Grade 3, subjects: 1 (10.0%)
  TEAE Vomiting Grade 4, subjects: 0
  TEAE Vomiting Grade 5, subjects: 0
  TEAE Vomiting Overall Frequency, subjects: 6 (60%)
100 mg BIW ≦3 mg/kg
  TEAE Abdominal pain Grade 2, subjects: 1 (2.5%)
  TEAE Abdominal pain Grade 3, subjects: 1 (2.5%)
  TEAE Abdominal pain Grade 4, subjects: 0
  TEAE Abdominal pain Grade 5, subjects: 0
  TEAE Abdominal pain Overall Frequency, subjects: 9 (22.5%)
  TEAE Diarrhea Grade 2, subjects: 3 (7.5%)
  TEAE Diarrhea Grade 3, subjects: 6 (15%)
  TEAE Diarrhea Grade 4, subjects: 0
  TEAE Diarrhea Grade 5, subjects: 0
  TEAE Diarrhea Overall Frequency, subjects: 20 (50%)^
  TEAE Hypokalaemia Grade 2, subjects: 1 (2.5%)
  TEAE Hypokalaemia Grade 3, subjects: 0
  TEAE Hypokalaemia Grade 4, subjects: 0
  TEAE Hypokalaemia Grade 5, subjects: 0
  TEAE Hypokalaemia, subjects: 5 (12.5%)
  TEAE Nausea Grade 2, subjects: 6 (15%)
  TEAE Nausea Grade 3, subjects: 1 (2.5%)
  TEAE Nausea Grade 4, subjects: 0
  TEAE Nausea Grade 5, subjects: 0
  TEAE Nausea Overall Frequency, subjects: 13 (32.5%)
  TEAE Vomiting Grade 2, subjects: 4 (10%)
  TEAE Vomiting Grade 3, subjects: 1 (2.5%)
  TEAE Vomiting Grade 4, subjects: 0
  TEAE Vomiting Grade 5, subjects: 0
  TEAE Vomiting Overall Frequency, subjects: 16 (40%)^
100 mg BIW, N = 50
  Abdominal pain leading to study drug withdrawal: 1 (2.0%)
  All AEs leading to withdrawal: 18 (36.0%)
  Diarrhoea leading to study drug withdrawal: 2 (4.0%)
  Dyspepsia leading to study drug withdrawal: 0%
  Nausea leading to study drug withdrawal: 1 (2.0%)
  TEAE ALT increased: 9 (18.0%) n (%)
  TEAE AST increased: 5 (10.0%) n (%)
  TEAE Abdominal pain: 13 (26.0%) n (%)
  TEAE Abdominal pain, Upper: 2 (4.0%) n (%)
  TEAE Acute GVHD: 32 (64.0%) n (%)
  TEAE Acute Myeloid Leukemia recurrent: 3 (6.0%) n (%)
  TEAE Acute Renal Failure: 1 (2.0%) n (%)
  TEAE Anxiety: 3 (6.0%) n (%)
  TEAE Arthralgias: 3 (6.0%) n (%)
  TEAE Back Pain: 4 (8.0%) n (%)
  TEAE Blood lactate dehydrogenase increased: 4 (8.0%) n (%)
  TEAE Creatinine increased: 7 (14.0%) n (%)
